Patent US4112228A, “7-(D-α-Hydroxy-2-arylacetamido)-3-(2-carboxyalkyl-2,3-dihydro-s-tri azolo-[4,3-b]pyridazin-3-on-6-ylthiomethyl)-3-cephem-4-carboxylic acids and derivatives” (priority 1977, dated 1978)
Converted amounts (≈) assume the structure as drawn.

How the values were obtained:
S. aureus Smith = experiment: Standard experimental infection in mice; format: in vivo; conditions: Table 6
Pr. rettgeri = experiment: MIC by Steers' agar dilution method; conditions: Providencia rettgeri
P. vulgaris A9436 (Pv-1) = experiment: Standard experimental infection (single sc treatment); conditions: for No. of survivors/No. tested: Run C-808, single sc
S. aureus = experiment: MIC by Steers' agar dilution method; format: cell-based; conditions: Staphylococcus aureus
bacteria of Table 4 = experiment: Media effect on MIC (Nutrient, Mueller-Hinton, Heart-Infusion agar); format: cell-based; conditions: NA, MHA, HIA

For `O=C(O)Cn1nc2ccc(SCC3=C(C(=O)O)N4C(=O)C(NC(=O)[C@H](O)c5ccccc5)[C@H]4SC3)nn2c1=O` (stereo partly drawn) [BB-S488, 7-(D-Mandelamido)-3-(2-carboxymethyl-2,3-dihydro-s-triazolo[4,3-b]pyridazin-3-on-6-ylthiomethyl)-3-cephem-4-carboxylic Acid], the “No. of survivors/No. tested” value (S. aureus Smith; 6.3 mg./kg.) was 5/5, the “No. of survivors/No. tested” value (S. aureus Smith; 25 mg./kg.) was 5/5 and the ED50 (S. aureus Smith; Staphylococcus aureus, read-out: PD50) was 0.12 mg/kg. The MIC (Pr. rettgeri; A15167, MHA, Table 1) was 0.05 µg/mL (≈ 0.0873 µM), the MIC (Pr. rettgeri; MHA, Example 10) was 0.2 µg/mL (≈ 0.349 µM) and the MIC (Pr. rettgeri; Pr-1 A15167, HIA, Table 4) was 0.1 µg/mL (≈ 0.175 µM). For the same compound, the MIC (Pr. rettgeri; Pr-1 A15167, MHA, Table 3) was 0.1 µg/mL (≈ 0.175 µM), the MIC (Pr. rettgeri; Pr-1 A15167, MHA, Table 4) was 0.05 µg/mL (≈ 0.0873 µM) and the MIC (Pr. rettgeri; Pr-1 A15167, NA, Table 4) was 0.4 µg/mL (≈ 0.699 µM). The MIC (Pr. rettgeri; Pr-2 A9637, MHA, Table 3) was 0.1 µg/mL (≈ 0.175 µM), the MIC (Pr. rettgeri; Pr-4 A20645, MHA, Table 3) was 0.1 µg/mL (≈ 0.175 µM) and the MIC (Pr. rettgeri; Pr-5 A20915, MHA, Table 3) was 0.2 µg/mL (≈ 0.349 µM). The MIC (Pr. rettgeri; Pr-6 A20920, MHA, Table 3) was 0.1 µg/mL (≈ 0.175 µM), the ED50 (P. vulgaris A9436 (Pv-1); Proteus vulgaris, in Mus musculus, sc, read-out: PD50) was 1.1 mg/kg and the “No. of survivors/No. tested” value (P. vulgaris A9436 (Pv-1); 0.4 mg./kg.) was 1/5. For the same compound, the “No. of survivors/No. tested” value (P. vulgaris A9436 (Pv-1); 1.6 mg./kg.) was 3/5, the “No. of survivors/No. tested” value (P. vulgaris A9436 (Pv-1); 6.3 mg./kg.) was 5/5 and the “No. of survivors/No. tested” value (P. vulgaris A9436 (Pv-1); 25 mg./kg.) was 5/5. The MIC (S. aureus; A9497, MHA, Table 1) was 0.1 µg/mL (≈ 0.175 µM), the MIC (S. aureus; BX-1633, MHA, Example 10) was 3.1 µg/mL (≈ 5.41 µM) and the MIC (S. aureus; BX-1633 A9606, MHA, Table 1) was 0.4 µg/mL (≈ 0.699 µM). The MIC (S. aureus; Sa-2 Smith A9537, HIA, Table 4) was 0.8 µg/mL (≈ 1.4 µM), the MIC (S. aureus; Sa-2 Smith A9537, MHA, Table 2) was 0.4 µg/mL (≈ 0.699 µM) and the MIC (S. aureus; Sa-2 Smith A9537, MHA, Table 4) was 0.8 µg/mL (≈ 1.4 µM). It also gave an MIC (S. aureus; Sa-2 Smith A9537, NA, Table 4) of 0.8 µg/mL (≈ 1.4 µM), an MIC (S. aureus; Sa-3 No. 193, MHA, Table 2) of 0.8 µg/mL (≈ 1.4 µM) and an MIC (S. aureus; Sa-8, MHA, Table 2) of 0.4 µg/mL (≈ 0.699 µM). It also gave an MIC (S. aureus; Sa-9 No. 193, MHA, Table 2) of 0.8 µg/mL (≈ 1.4 µM), an MIC (S. aureus; Sa-10 A20239, MHA, Table 2) of 1.6 µg/mL (≈ 2.79 µM) and an MIC (S. aureus; Sa-11 BX-1633 A9606 (β-lactamase), HIA, Table 4) of 1.6 µg/mL (≈ 2.79 µM). The MIC (S. aureus; Sa-11 BX-1633 A9606 (β-lactamase), MHA, Table 4) was 0.8 µg/mL (≈ 1.4 µM), the MIC (S. aureus; Sa-11 BX-1633 A9606 (β-lactamase), NA, Table 4) was 3.1 µg/mL (≈ 5.41 µM) and the MIC (S. aureus; Sa-11 BX-1633 A9606, MHA, Table 2) was 0.4 µg/mL (≈ 0.699 µM). For the same compound, the MIC (S. aureus; Sa-12 A9497, MHA, Table 2) was 0.2 µg/mL (≈ 0.349 µM), the MIC (S. aureus; Sa-29 No. 193, MHA, Table 2) was 1.6 µg/mL (≈ 2.79 µM) and the MIC (S. aureus; Sa-33 Terajima, MHA, Table 2) was 0.0125 µg/mL (≈ 0.0218 µM). It also gave an MIC (S. aureus; Sa-34 A15092, MHA, Table 2) of 0.8 µg/mL (≈ 1.4 µM), an MIC (S. aureus; Sa-35 A15094, MHA, Table 2) of 0.8 µg/mL (≈ 1.4 µM) and an MIC (S. aureus; Sa-36 Russell, MHA, Table 2) of 0.8 µg/mL (≈ 1.4 µM). The MIC (S. aureus; Sa-37 A9524, MHA, Table 2) was 1.6 µg/mL (≈ 2.79 µM), the MIC (S. aureus; Sa-38 A9534, MHA, Table 2) was 0.4 µg/mL (≈ 0.699 µM) and the MIC (S. aureus; Sa-39 A9578, MHA, Table 2) was 0.8 µg/mL (≈ 1.4 µM). The MIC (S. aureus; Sa-40 A9601, MHA, Table 2) was 0.8 µg/mL (≈ 1.4 µM), the MIC (S. aureus; Sa-41 A9602, MHA, Table 2) was 0.8 µg/mL (≈ 1.4 µM) and the MIC (S. aureus; Sa-44 A15097, HIA, Table 4) was over 100 µg/mL. The MIC (S. aureus; Sa-44 A15097, MHA, Table 2) was 25 µg/mL (≈ 43.7 µM), the MIC (S. aureus; Sa-44 A15097, MHA, Table 4) was 100 µg/mL (≈ 175 µM) and the MIC (S. aureus; Sa-44 A15097, NA, Table 4) was over 100 µg/mL. It also gave an MIC (S. aureus; Sa-56 A9630, MHA, Table 2) of 3.1 µg/mL (≈ 5.41 µM), an MIC (S. aureus; Sa-57 A9748, MHA, Table 2) of 25 µg/mL (≈ 43.7 µM) and an MIC (S. aureus; Sa-58 A15033, MHA, Table 2) of 12.5 µg/mL (≈ 21.8 µM). The MIC (S. aureus; Sa-59 A15096, MHA, Table 2) was 100 µg/mL (≈ 175 µM), the MIC (S. aureus; Sa-60 A20604, MHA, Table 2) was 50 µg/mL (≈ 87.3 µM) and the MIC (S. aureus; Sa-61 A20605, MHA, Table 2) was 100 µg/mL (≈ 175 µM). The MIC (S. aureus; Sa-62 A20606, MHA, Table 2) was 3.1 µg/mL (≈ 5.41 µM), the MIC (S. aureus; Sa-63 A20607, MHA, Table 2) was over 100 µg/mL and the MIC (S. aureus; Sa-64 A20608, MHA, Table 2) was 100 µg/mL (≈ 175 µM). For the same compound, the MIC (S. aureus; Sa-65 A20609, MHA, Table 2) was 100 µg/mL (≈ 175 µM), the MIC (S. aureus; Sa-66 A20610, MHA, Table 2) was 100 µg/mL (≈ 175 µM) and the MIC (S. aureus; Sa-67 A20611, MHA, Table 2) was 100 µg/mL (≈ 175 µM). It also gave an MIC (S. aureus; Sa-68 A20612, MHA, Table 2) of 1.6 µg/mL (≈ 2.79 µM), an MIC (S. aureus; Sa-69 A20613, MHA, Table 2) of 100 µg/mL (≈ 175 µM) and an MIC (S. aureus; Smith A9537, MHA, Table 1) of 0.2 µg/mL (≈ 0.349 µM). The MIC (S. aureus; Smith, MHA, Example 10) was 0.8 µg/mL (≈ 1.4 µM), the MIC (S. aureus; strain not named, MHA, Example 10) was 0.4 µg/mL (≈ 0.699 µM) and the “Media effect on MIC” value (bacteria of Table 4) was “little media effect”.
